Laboratory results reported in patent US9045429B2, “Substituted phenoxypyridines” (Bayer Intellectual Property GmbH, priority 2010, dated 2015).

How the values were obtained:
HCT116 cells = experiment: HCT116 Cell Titer Glo (CTG) Proliferation Assay [Assay 1]; type: cell-based; details: HCT-116, HCT116 human colorectal cells, 72 hours incubation
Source text: Cell Titer Glo Proliferation Assay
The adherent tumor cell proliferation assay used to test the compounds of the present invention involves a readout called Cell Titre-Glo developed by Promega (Cunningham, BA “A Growing Issue: Cell Proliferation Assays. Modern kits ease quantification of cell growth” The Scientist 2001, 15(13), 26, and Crouch, S P et al., “The use of ATP bioluminescence as a measure of cell proliferation and cytotoxicity” Journal of Immunological Methods 1993, 160, 8 1-88).
Assay 1: HCT116 Cell Titer Glo (CTG) Proliferation Assay:
(§1) HCT116 cells [human colorectal cell line, expressing mutant […]] were plated at a density of 3000 cells/well in 96 well black-clear bottom tissue culture plates (Costar 3603 black/clear bottom) in 100 μl/well DMEM medium (DMEM/Ham's F12) with 10% Fetal Bovine Serum (FBS) and stable Glutamine incubated at 37° C. Sister wells were plated in separate plate for time zero determination. All plates were incubated overnight at 37° C. Take down time zero plate: 100 μl/well CTG solution (Promega Cell Titer Glo solution) were added to time zero wells in sister plate; the plates were mixed for 2 min on orbital shaker to ensure cell lysis, incubated for 10 minutes, luminescence was read on VICTOR 3 (Perkin Elmer). Twenty-four hours after cell seeding, test compounds were diluted in 50 μl medium and were added at a final concentration range from as high 10 μM to as low 300 pM depending on the activities of the tested compounds in serial dilutions at a final DMSO concentration of 0.4%. Cells were incubated for 72 hours at 37° C. after addition of the test compound. Then, using a Promega Cell Titer Glo Luminescent® assay kit, 100 μl microliter lysis buffer containing of the enzyme luciferase and its substrate, luciferin mixture, were added to each well and incubated for 10 min at room temperature in the dark to stabilize luminescence signal. The samples were read on VICTOR 3 (Perkin Elmer) using Luminescence protocol. The percentage change in cell growth was calculated by normalizing the measurements to the extinctions of the zero point plate (=0%) and the extinction of the untreated (0 μM) cells (=100%). The IC50 values were determined by means of a 4-parameter fit using the company's own software.

A549 cells = experiment: A549 Cell Titer Glo (CTG) Proliferation Assay [Assay 2]; type: cell-based; details: A549 human non small cell lung cancer cells (K-Ras G12S), 72 hours incubation
Protocol: as §1
Assay 2: A549 Cell Titer Glo (CTG) Proliferation Assay:
A549 cells [human non small cell lung cancer cell line, expressing mutant K-Ras G12S] were seeded at a density of 2000 cells/well in 96 well black-clear bottom tissue culture plates (Costar 3603 black/clear bottom) in 100 μl/well DMEM medium (DMEM/Ham's F12) with 10% Fetal Bovine Serum (FBS) and stable Glutamine incubated at 37° C. Cell Titer Glo proliferation assays for A549 cells were performed with the same protocol as described afore for HCT116 cells.

A375 cells = experiment: A375 Crystal Violet (CV) Proliferation Assay [Assay 5]; type: cell-based; details: A-375, 96 h; A375 human melanoma cells (BRAF V600E), crystal violet staining, 4 days incubation
Protocol: Assay 5: A375 Crystal Violet (CV) Proliferation Assay:
Cell proliferation for A375 cells [human melanoma cell line, expressing mutant BRAF V600E] was measured by crystal violet (CV) staining: Cultivated human A375 cells were plated out in a density of 1500 cells/measurement point in 200 μl of growth medium (DMEM/HAMS F12 with 10% FBS and 2 mM Glutamine) in a 96-well multititer plate. After 24 hours, the cells from a plate (zero plate) were stained with crystal violet (see below), while the medium in the other plates was replaced by fresh culture medium (200 μl) to which the test substances had been added in various concentrations (0 μM, and in the range 0.3 nM-30 μM; the final concentration of the solvent dimethyl sulphoxide was 0.5%). The cells were incubated in the presence of the test substances for 4 days. The cell proliferation was determined by staining the cells with crystal violet: the cells were fixed by adding 20 μl/measurement point of an 11% glutaraldehyde solution at room temperature for 15 min. After the fixed cells had been washed three times with water, the plates were dried at room temperature. The cells were stained by adding 100 μl/measurement point of a 0.1% crystal violet solution (pH adjusted to pH 3 by adding acetic acid). After the stained cells had been washed three times with water, the plates were dried at room temperature. The dye was dissolved by adding 100 μl/measurement point of a 10% acetic acid solution, and the extinction was determined by photometry at a wavelength of 595 nm. The percentage change in cell growth was calculated by normalizing the measurements to the extinctions of the zero point plate (=0%) and the extinction of the untreated (0 μM) cells (=100%). The IC50 values were determined by means of a 4-parameter fit using the company's own software.

MEK1/2 = MEK1/2 inhibitor, literature [17]; cited from earlier work
colon cancer = details: oral treatment, mouse models, literature [18]; cited from earlier work

`NC(=O)c1c(Nc2ccc(I)cc2F)cncc1Oc1cccc(N)c1` [Example 3, 3-(3-aminophenoxy)-5-[(2-fluoro-4-iodophenyl)amino]isonicotinamide] showed an IC50 (HCT116 cells) of 214 nM, an IC50 (A549 cells) of 377 nM and an IC50 (A375 cells) of 0.676 nM.

In the case of `CCS(=O)(=O)Nc1cccc(Oc2cncc(Nc3ccc(I)cc3F)c2C(N)=O)c1` [Example 6, 3-{3-[(ethylsulfonyl)amino]phenoxy}-5-[(2-fluoro-4-iodophenyl)amino]isonicotinamide], the IC50 (HCT116 cells) is reported as 11 nM, the IC50 (A549 cells) is reported as 14.8 nM and the IC50 (A375 cells) is reported as 15.3 nM.

With `NC(=O)c1c(Nc2ccc(I)cc2F)cncc1Oc1cccc(NS(=O)(=O)C2CC2)c1` [Example 7, 3-{3-[(cyclopropylsulfonyl)amino]phenoxy}-5-[(2-fluoro-4-iodophenyl)amino]isonicotinamide] the IC50 (HCT116 cells) was 9.71 nM, the IC50 (A549 cells) was 17 nM and the IC50 (A375 cells) was 15.2 nM.

Compound `CC(=O)Nc1cccc(Oc2cncc(Nc3ccc(I)cc3F)c2C(N)=O)c1` [Example 8, 3-(3-acetamidophenoxy)-5-[(2-fluoro-4-iodophenyl)amino]isonicotinamide] has an IC50 (HCT116 cells) of 195 nM, an IC50 (A549 cells) of 335 nM and an IC50 (A375 cells) of 4.92 nM.

`CC(C)(O)C(O)CCOc1cncc(Nc2ccc(I)cc2F)c1C(N)=O` (stereo not shown) [Example 12, 3-[(3,4-dihydroxy-4-methylpentyl)oxy]-5-[(2-fluoro-4-iodophenyl)amino]isonicotinamide] gave an IC50 (A375 cells) of 33.3 nM.

Work on `CC(C)S(=O)(=O)Nc1cccc(Oc2cncc(Nc3ccc(I)cc3F)c2C(N)=O)c1` [Example 4, 3-[(2-fluoro-4-iodophenyl)amino]-5-{3[(isopropylsulfonyl)amino]phenoxy}isonicotinamide] yielded an IC50 (HCT116 cells) of 11.1 nM, an IC50 (A549 cells) of 14.3 nM and an IC50 (A375 cells) of 0.411 nM.

Compound `NC(=O)c1c(Nc2ccc(I)cc2F)cncc1Oc1ccc2oc(=O)[nH]c2c1` [Example 1, 3-[(2-fluoro-4-iodophenyl)amino]-5-[(2-oxo-2,3-dihydro-1,3-benzoxazol-5-yl)oxy]isonicotinamide] has an IC50 (HCT116 cells) of 45 nM, an IC50 (A549 cells) of 59 nM and an IC50 (A375 cells) of 2.31 nM.

In the case of `O=C(NOCC1CC1)c1ccc(F)c(F)c1Nc1ccc(I)cc1Cl` [PD184352], the IC50 (MEK1/2) is given as “low nanomolar range” and the “colon cancer growth in vivo” value (colon cancer) is given as “inhibit colon cancer growth”.

`CC(C)C(=O)Nc1cccc(Oc2cncc(Nc3ccc(I)cc3F)c2C(N)=O)c1` [Example 10, 3-[(2-fluoro-4-iodophenyl)amino]-5-[3-(isobutyrylamino)phenoxy]isonicotinamide] gave an IC50 (HCT116 cells) of 1120 nM, an IC50 (A549 cells) of 1670 nM and an IC50 (A375 cells) of 21.5 nM.

For `CS(=O)(=O)Nc1cccc(Oc2cncc(Nc3ccc(I)cc3F)c2C(N)=O)c1` [Example 5, 3-[(2-fluoro-4-iodophenyl)amino]-5-{3-[(methylsulfonyl)amino]phenoxy}isonicotinamide], the IC50 (HCT116 cells) was 18.8 nM, the IC50 (A549 cells) was 22.7 nM and the IC50 (A375 cells) was 0.775 nM.

With `C#Cc1ccc(Nc2cncc(Oc3cccc(NS(=O)(=O)CC)c3)c2C(N)=O)c(F)c1` [Example 14, 3-{3-[(ethylsulfonyl)amino]phenoxy}-5-[(4-ethynyl-2-fluorophenyl)amino]isonicotinamide] the IC50 (HCT116 cells) was 33.6 nM, the IC50 (A549 cells) was 49.8 nM and the IC50 (A375 cells) was 1.25 nM.

For `CCC(=O)Nc1cccc(Oc2cncc(Nc3ccc(I)cc3F)c2C(N)=O)c1` [Example 9, 3-[(2-fluoro-4-iodophenyl)amino]-5-[3-(propionylamino)phenoxy]isonicotinamide], the IC50 (HCT116 cells) was 440 nM, the IC50 (A549 cells) was 882 nM and the IC50 (A375 cells) was 8.8 nM.

Compound `COc1cncc(Nc2ccc(I)cc2F)c1C(N)=O` [Example 15, 3-[(2-fluoro-4-iodophenyl)amino]-5-methoxyisonicotinamide] has an IC50 (A375 cells) of 118 nM.
